# Measured values published in EPA's ToxRefDB 2.
# Columns and labels:
# rat [1] = conditions: Combined chronic toxicity/carcinogenicity; sprague dawley; Oral; Feed; dose end: 104 week; group: systemic; systemic / in life observation / body weight / body weight + systemic / in life observation / body weight / body weight gain + systemic / in…
# rat [2] = conditions: Subchronic oral toxicity in rodents, sprague dawley, Feed, dose end: 13 week, group: systemic
# mouse [3] = conditions: Carcinogenicity; cd1; Oral; Feed; dose end: 78 week; group: systemic; systemic / in life observation / body weight / body weight + systemic / in life observation / body weight / body weight gain
# rat [4] = conditions: Fertility (Segment I), Oral, Gavage/Intubation, dose end: 6 GD
# rat [5] = conditions: Fertility (Segment I); sprague dawley; Oral; Gavage/Intubation; dose end: 63 day; group: parental; systemic / in life observation / body weight / body weight + systemic / in life observation / body weight / body weight gain + systemic / in…
# rat [6] = conditions: Sub-acute repeat dose toxicity, sprague dawley, Oral, Gavage/Intubation, dose end: 1 month, group: systemic
# dog [7] = conditions: Chronic toxicity; beagle; Oral; Feed; dose end: 1 year; group: systemic; systemic / pathology microscopic / skeletal muscle / degeneration + systemic / pathology microscopic / skeletal muscle / infiltration …
# rabbit [8] = conditions: Prenatal developmental toxicity study, new zealand white, Oral, Gavage/Intubation, dose end: 19 GD
# rat [9] = conditions: Multigenerational reproductive toxicity study, other, Oral, Feed, dose end: 2 generation
# dog [10] = conditions: Chronic toxicity; beagle; Oral; Feed; dose end: 52 week; group: systemic; systemic / hematology / anemia / anemia - hemolytic + systemic / hematology / platelet / platelet + systemic / in life observation / body …
# mouse [11] = conditions: Carcinogenicity; cd1; Oral; Feed; dose end: 78 week; group: systemic; systemic / in life observation / body weight / body weight gain + systemic / organ weight / liver / relative to body weight + systemic / …
# rat [12] = conditions: Prenatal developmental toxicity study, sprague dawley, Oral, Gavage/Intubation, dose end: 15 GD
# rabbit [13] = conditions: Prenatal developmental toxicity study, new zealand white, Oral, Gavage/Intubation, dose end: 19 GD; remark: listed apart in the source
# rat [14] = conditions: Combined chronic toxicity/carcinogenicity, sprague dawley, Oral, [Not Specified], dose end: 104 week, group: systemic
# rat [15] = conditions: Combined chronic toxicity/carcinogenicity, sprague dawley, Oral, Feed, dose end: 104 week, group: systemic
# rat [16] = conditions: Multigenerational reproductive toxicity study, sprague dawley, Oral, Feed, dose end: 2 generation, group: parental
# rat [17] = conditions: Developmental neurotoxicity study, sprague dawley, Oral, Gavage/Intubation, dose end: 105 PND, group: cannot be grouped
# mouse [18] = conditions: Subchronic oral toxicity in rodents, b6c3f1, Gavage/Intubation, dose end: 94 day, group: systemic, systemic / pathology microscopic / liver / vacuolization cytoplasmic + systemic / clinical chemistry / alkaline phosphatase (alp/alk) / …
# rat [19] = conditions: Subchronic oral toxicity in rodents, sprague dawley, Feed, dose end: 90 day, group: systemic, systemic / pathology gross / sperm measure / sperm count + systemic / pathology gross / sperm measure / sperm motility
# dog [20] = conditions: Chronic toxicity, beagle, Oral, Feed, dose end: 104 week, group: systemic
# rat [21] = conditions: Prenatal developmental toxicity study, sprague dawley, Oral, Gavage/Intubation, dose end: 20 GD
# rat [22] = conditions: Multigenerational reproductive toxicity study, sprague dawley, Oral, [Not Specified], dose end: 2 generation
# [23] = systemic / in life observation / body weight / body weight + systemic / in life observation / body weight / body weight gain
# [24] = systemic / in life observation / body weight / body weight + systemic / in life observation / body weight / body weight gain + systemic / in…
# [25] = group: developmental, developmental / developmental malformation / bladder / [other]
# [26] = group: parental, systemic / in life observation / body weight / body weight
# [27] = systemic / hematology / hemoglobin distribution width (hdw) / hemoglobin distribution width (hdw) + systemic / hematology / platelet / …
# [28] = group: developmental, developmental / developmental malformation / bone / short supernumerary
# [29] = group: maternal, systemic / in life observation / body weight / body weight gain + systemic / in life observation / food consumption / food consumption
# [30] = group: maternal, systemic / in life observation / body weight / body weight gain + systemic / in life observation / food consumption / food consumption + …
# [31] = group: offspring, developmental / offspring survival late / viability index / viability index
# [32] = group: offspring, developmental / offspring survival late / viability index / viability index + systemic / in life observation / body weight / offspring (pup…
# [33] = group: parental, systemic / organ weight / liver / absolute + systemic / organ weight / liver / relative to body weight + systemic / pathology microscopic / …
# [34] = group: developmental, developmental / developmental malformation / bone / delayed ossification + systemic / in life observation / body weight / fetal weight
# [35] = group: developmental, developmental / developmental malformation / bone / delayed ossification + systemic / in life observation / body weight / fetal weight + …
# [36] = group: maternal, systemic / in life observation / body weight / body weight + systemic / in life observation / body weight / body weight gain + systemic / in…
# [37] = group: developmental, developmental / developmental malformation / bone / supernumerary
# [38] = group: maternal, systemic / in life observation / body weight / body weight gain + systemic / in life observation / clinical signs / defecation + systemic / …
# [39] = systemic / pathology gross / eye / discolored + systemic / pathology microscopic / eye / inflammation + systemic / pathology microscopic / …
# [40] = systemic / in life observation / body weight / body weight gain + systemic / in life observation / body weight / body weight
# [41] = developmental / developmental landmark / eye opening / eye opening + developmental / developmental landmark / incisor eruption / incisor …
# [42] = developmental / developmental landmark / incisor eruption / incisor eruption + developmental / developmental landmark / eye opening / eye …
# [43] = systemic / clinical chemistry / alkaline phosphatase (alp/alk) / alkaline phosphatase (alp/alk) + systemic / organ weight / liver / absolute…
# [44] = systemic / pathology microscopic / spleen / hemosiderosis
# [45] = group: developmental, developmental / developmental malformation / bone / misaligned + developmental / developmental malformation / mouth / jaw / protruding …
# [46] = group: offspring, systemic / in life observation / body weight / offspring (pup) weight
# [47] = group: parental, systemic / in life observation / body weight / body weight + systemic / in life observation / clinical signs / [other] + systemic / in life …
# [48] = group: reproductive, reproductive / reproductive performance / gestational length / gestational length
compound,measurement,setting,value
CCCCCCCCCCCC[N+](C)(C)Cc1ccccc1.[Cl-],LEL,rat [1],88 mg/kg/day
same,LOAEL,rat [1],88 mg/kg/day
same,NEL,rat [1],44 mg/kg/day
same,NOAEL,rat [1],44 mg/kg/day
same,LOAEL,rat [2]; [23],62 mg/kg/day
same,NEL,rat [2]; [24],6.3 mg/kg/day
same,NOAEL,rat [2]; [24],31.2 mg/kg/day
same,LEL,rat [2]; systemic / in life observation / food consumption / food consumption + systemic / pathology gross / stomach / discolored,31.2 mg/kg/day
same,LEL,mouse [3],229 mg/kg/day
same,LOAEL,mouse [3],229 mg/kg/day
same,NEL,mouse [3],73.4 mg/kg/day
same,NOAEL,mouse [3],73.4 mg/kg/day
CCN1CCC2(CC1)COc1cc3c(cc12)N(C(=O)c1ccc(-c2ccc(-c4nnc(C)o4)cc2C)cc1)CC3.Cl,LEL,rat [4]; [25],30 mg/kg/day
same,LOAEL,rat [4]; [25],> 30 mg/kg/day
same,NEL,rat [4]; [25],10 mg/kg/day
same,NOAEL,rat [4]; [25],≥ 30 mg/kg/day
same,LEL,rat [4]; [26],30 mg/kg/day
same,LOAEL,rat [4]; [26],> 30 mg/kg/day
same,NEL,rat [4]; [26],10 mg/kg/day
same,NOAEL,rat [4]; [26],≥ 30 mg/kg/day
same,LEL,rat [5],30 mg/kg/day
same,LOAEL,rat [5],> 30 mg/kg/day
same,NEL,rat [5],10 mg/kg/day
same,NOAEL,rat [5],≥ 30 mg/kg/day
same,LOAEL,rat [6]; [27],> 30 mg/kg/day
same,NEL,rat [6]; [27],3 mg/kg/day
same,NOAEL,rat [6]; [27],≥ 30 mg/kg/day
same,LEL,rat [6]; systemic / hematology / platelet / platelet + systemic / hematology / reticulocyte / reticulocyte,10 mg/kg/day
Cc1cnc(C2=NC(C)(C(C)C)C(=O)N2)c(C(=O)O)c1 (stereo not given) [Imazapic],LEL,dog [7],137 mg/kg/day
same,LOAEL,dog [7],137 mg/kg/day
same,NEL,dog [7],< 137 mg/kg/day
same,NOAEL,dog [7],< 137 mg/kg/day
same,LEL,rabbit [8]; [28],350 mg/kg/day
same,LOAEL,rabbit [8]; [28],> 700 mg/kg/day
same,NEL,rabbit [8]; [28],175 mg/kg/day
same,NOAEL,rabbit [8]; [28],≥ 700 mg/kg/day
same,LEL,rabbit [8]; [29],500 mg/kg/day
same,LOAEL,rabbit [8]; [29],500 mg/kg/day
same,NEL,rabbit [8]; [30],350 mg/kg/day
same,NOAEL,rabbit [8]; [30],350 mg/kg/day
CS(=O)(=O)c1cc(C(F)(F)F)ccc1C(=O)c1cnoc1C1CC1 [Isoxaflutole],LEL,rat [9]; [31],17.4 mg/kg/day
same,LOAEL,rat [9]; [31],17.4 mg/kg/day
same,NEL,rat [9]; [32],1.76 mg/kg/day
same,NOAEL,rat [9]; [32],1.76 mg/kg/day
same,LEL,rat [9]; [33],17.4 mg/kg/day
same,LOAEL,rat [9]; [33],17.4 mg/kg/day
same,NEL,rat [9]; [33],1.76 mg/kg/day
same,NOAEL,rat [9]; [33],1.76 mg/kg/day
same,LEL,dog [10],453 mg/kg/day
same,LOAEL,dog [10],453 mg/kg/day
same,NEL,dog [10],44.8 mg/kg/day
same,NOAEL,dog [10],44.8 mg/kg/day
same,LEL,mouse [11],64.4 mg/kg/day
same,LOAEL,mouse [11],64.4 mg/kg/day
same,NEL,mouse [11],3.2 mg/kg/day
same,NOAEL,mouse [11],3.2 mg/kg/day
same,LEL,rat [12]; [34],100 mg/kg/day
same,LOAEL,rat [12]; [34],100 mg/kg/day
same,NEL,rat [12]; [35],10 mg/kg/day
same,NOAEL,rat [12]; [35],10 mg/kg/day
same,LEL,rat [12]; [36],500 mg/kg/day
same,LOAEL,rat [12]; [36],500 mg/kg/day
same,NEL,rat [12]; [36],100 mg/kg/day
same,NOAEL,rat [12]; [36],100 mg/kg/day
same,LEL,rabbit [13]; [37],5 mg/kg/day
same,LOAEL,rabbit [13]; [37],5 mg/kg/day
same,NEL,rabbit [13]; [37],< 5 mg/kg/day
same,NOAEL,rabbit [13]; [37],< 5 mg/kg/day
same,LEL,rabbit [13]; [38],100 mg/kg/day
same,LOAEL,rabbit [13]; [38],100 mg/kg/day
same,NEL,rabbit [13]; [38],20 mg/kg/day
same,NOAEL,rabbit [13]; [38],20 mg/kg/day
same,NEL,rat [14]; systemic / organ weight / liver / absolute + systemic / organ weight / liver / relative to body weight + systemic / pathology gross / liver…,2 mg/kg/day
same,LEL,rat [14]; [39],20 mg/kg/day
same,LOAEL,rat [14]; [39],20 mg/kg/day
same,NOAEL,rat [14]; [39],2 mg/kg/day
COC(=O)c1ccccc1S(=O)(=O)NC(=O)Nc1nc(C)nc(OC)n1 [Metsulfuron-methyl],LOAEL,rat [15]; [23],250 mg/kg/day
same,NEL,rat [15]; [23],1.25 mg/kg/day
same,NOAEL,rat [15]; [23],125 mg/kg/day
same,LEL,rat [15]; systemic / in life observation / body weight / body weight gain + systemic / in life observation / body weight / body weight + systemic / …,25 mg/kg/day
same,LOAEL,rat [16]; systemic / in life observation / body weight / body weight gain,250 mg/kg/day
same,LEL,rat [16]; [40],250 mg/kg/day
same,NEL,rat [16]; [40],25 mg/kg/day
same,NOAEL,rat [16]; [40],25 mg/kg/day
CC(=O)OC/C=C(C)/C=C/C=C(C)/C=C/C1=C(C)CCCC1(C)C [Retinol acetate],LOAEL,rat [17]; [41],> 34.4 mg/kg/day
same,NOAEL,rat [17]; [41],≥ 34.4 mg/kg/day
same,LEL,rat [17]; [42],8.6 mg/kg/day
same,NEL,rat [17]; [42],< 8.6 mg/kg/day
CO[C@H]1/C=C/O[C@@]2(C)Oc3c(C)c(O)c4c(O)c(c(/C=N/N5CCN(C)CC5)c(O)c4c3C2=O)NC(=O)/C(C)=C\C=C\[C@H](C)[C@H](O)[C@@H](C)[C@@H](O)[C@@H](C)[C@H](OC(C)=O)[C@@H]1C [Rifampicin],LEL,mouse [18],100 mg/kg/day
same,LOAEL,mouse [18],100 mg/kg/day
same,NEL,mouse [18],< 100 mg/kg/day
same,NOAEL,mouse [18],< 100 mg/kg/day
O=C(O)c1ccc(C(=O)O)cc1 [Terephthalic acid],LEL,rat [19],5820 mg/kg/day
same,LOAEL,rat [19],> 5820 mg/kg/day
same,NEL,rat [19],1180 mg/kg/day
same,NOAEL,rat [19],≥ 5820 mg/kg/day
CC(C)N(C(=O)SCC(Cl)=C(Cl)Cl)C(C)C [Tri-allate],LOAEL,dog [20]; [43],5 mg/kg/day
same,NOAEL,dog [20]; [43],1.5 mg/kg/day
same,LEL,dog [20]; [44],1.5 mg/kg/day
same,NEL,dog [20]; [44],< 1.5 mg/kg/day
same,LEL,rat [21]; [45],90 mg/kg/day
same,LOAEL,rat [21]; [45],90 mg/kg/day
same,NEL,rat [21]; [45],30 mg/kg/day
same,NOAEL,rat [21]; [45],30 mg/kg/day
same,LOAEL,rat [21]; [29],30 mg/kg/day
same,LEL,rat [21]; [30],30 mg/kg/day
same,NEL,rat [21]; [30],10 mg/kg/day
same,NOAEL,rat [21]; [30],10 mg/kg/day
same,LEL,rat [22]; [46],2.5 mg/kg/day
same,NEL,rat [22]; [46],< 2.5 mg/kg/day
same,NOAEL,rat [22]; [46],7.5 mg/kg/day
same,LOAEL,"rat [22]; group: offspring, systemic / in life observation / body weight / offspring (pup) weight + developmental / offspring survival late / [other] / [other]",30 mg/kg/day
same,LOAEL,rat [22]; [47],30 mg/kg/day
same,NEL,rat [22]; [47],2.5 mg/kg/day
same,NOAEL,rat [22]; [47],7.5 mg/kg/day
same,LEL,"rat [22]; group: parental, systemic / in life observation / body weight / body weight + systemic / organ weight / ovary / relative to body weight + systemic / organ …",7.5 mg/kg/day
same,LEL,rat [22]; [48],30 mg/kg/day
same,LOAEL,rat [22]; [48],30 mg/kg/day
same,NEL,rat [22]; [48],7.5 mg/kg/day
same,NOAEL,rat [22]; [48],7.5 mg/kg/day
